Reference: US20240199683A1, “ANDROGEN RECEPTOR MODULATORS” (priority 2021, published 2024)

Legend:
human AR [1] = biological target: T1, human AR (Homo sapiens, UniProt P10275); assay: human AR agonist assay (Indigo Biosciences); format: cell-based
T1 construct: purchased Indigo Biosciences
T1 sequence (P10275 1-920): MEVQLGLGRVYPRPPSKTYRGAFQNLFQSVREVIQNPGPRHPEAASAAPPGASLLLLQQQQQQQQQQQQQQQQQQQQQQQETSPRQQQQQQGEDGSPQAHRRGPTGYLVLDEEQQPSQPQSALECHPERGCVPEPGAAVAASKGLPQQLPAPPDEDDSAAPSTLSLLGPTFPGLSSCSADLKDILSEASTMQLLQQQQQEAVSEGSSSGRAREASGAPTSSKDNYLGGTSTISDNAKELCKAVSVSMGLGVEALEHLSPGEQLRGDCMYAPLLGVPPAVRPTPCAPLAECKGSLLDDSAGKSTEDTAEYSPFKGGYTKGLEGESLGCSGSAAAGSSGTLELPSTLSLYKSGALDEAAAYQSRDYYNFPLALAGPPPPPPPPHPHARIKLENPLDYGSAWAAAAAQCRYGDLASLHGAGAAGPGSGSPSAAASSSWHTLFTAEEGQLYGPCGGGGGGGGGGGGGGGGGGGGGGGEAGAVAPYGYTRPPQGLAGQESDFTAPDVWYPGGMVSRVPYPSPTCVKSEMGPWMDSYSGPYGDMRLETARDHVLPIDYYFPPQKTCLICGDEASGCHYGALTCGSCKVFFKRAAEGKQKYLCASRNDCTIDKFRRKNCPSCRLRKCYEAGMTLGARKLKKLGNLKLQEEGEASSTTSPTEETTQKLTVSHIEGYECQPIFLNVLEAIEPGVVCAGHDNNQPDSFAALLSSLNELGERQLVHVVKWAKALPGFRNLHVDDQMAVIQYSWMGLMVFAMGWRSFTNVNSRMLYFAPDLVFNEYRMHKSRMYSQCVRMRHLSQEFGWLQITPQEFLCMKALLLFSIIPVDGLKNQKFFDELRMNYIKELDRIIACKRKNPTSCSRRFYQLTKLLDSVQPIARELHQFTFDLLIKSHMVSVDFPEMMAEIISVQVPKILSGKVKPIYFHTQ
Source text: (§1) The activity of a compound can be determined using various known methods. For example, AR assays can be used. Such AR assays include binding assays using, for example, cells transfected with the human androgen receptor. Several cell based model systems that allow sensitive detection and monitoring of steroids or other compounds with AR bioactivity are known. Most cell based AR reporter models use transgenic gene constructs that include an androgen response element (ARE) that controls reporter gene (e.g., lucifersrase) expression. For example, a human AR Reporter Assay System is commercially available from Indigo Biosciecnes. The principle application of such an assay product is to quantify functional activities, either agonist or antagonist, that a compound may exert against the human androgen receptor. […] In addition, the anti-proliferative activity of a compound can be determined using various known methods, including in vitro and in vivo antiproliferative assays using cancer cell lines such as a prostate cancer cell line.
(§2) The activity of certain compounds were tested in a human AR agonist assay and a human AR antagonist assay (Indigo Biosciences).

human AR [2] = biological target: T1, human AR; assay: human AR antagonist assay (Indigo Biosciences); format: cell-based
Source text: as §1, §2

androgen receptor = biological target: T2, androgen receptor (Homo sapiens, UniProt P10275); assay: Ki of Table A (method not described; AR binding assays mentioned generally)
T2 sequence (P10275 1-920): T1 sequence (P10275 1-920)
Source text: as §1

[3] = Table A, values match the human AR antagonist assay

| SMILES | EC50 (human AR [1]) [mM] | IC50 (human AR [2]; [3]) [nM] | HillSlope (human AR [2]; Table 4, antagonist mode) | Ki (androgen receptor) [nM] | IC50 (human AR [2]; Table 4, antagonist mode) [nM] |
| --- | --- | --- | --- | --- | --- |
| C[C@]12CC[C@@]3(C)C(=C1C[C@H](O)C2)CCC1=CC(=O)CC[C@@H]13 [Compound 103, (9R,10S,13R,16R)-16-hydroxy-9,13-dimethyl-1,2,6,7,9,10,11,12,13,15,16,17-dodecahydro-3H-cyclopenta[a]phenanthren-3-one] | 8.95 |  |  |  |  |
| C[C@]12CC[C@@]3(C)C(=C1C[C@@H](O)C2)CC[C@H]1CC(=O)CC[C@@H]13 [Compound 106] |  | 1800 |  |  |  |
| C[C@]12CC[C@@]3(C)C(=C1C[C@H](O)C2)CC[C@H]1CC(=O)CC[C@@H]13 [Compound 109] |  | 6800 |  |  |  |
| C[C@]12CCC(=O)C=C1CCC1=C2CC[C@]2(C)C[C@H](O)[C@@H]3C[C@@]132 [Compound 201] |  | 218 | 1.375 | 1400 |  |
| C[C@]12CCC3=C(CC[C@H]4CC(=O)CC[C@]34C)[C@@]13C[C@H]3[C@@H](O)C2 [Compound 202, (2S,2aR,3aR,5aS,9aS,11aR)-2-hydroxy-9a, 11a-dimethyl-1,2a,3,4,5a,6,8,9,9a,10,11,11a-dodecahydro-2H-cyclopropa[1,5]cyclopenta[1,2-a]phenanthren-7(5H)-one] |  | 61 | 1.360 | 837 | 60.5 |
| C[C@]12CCC3=C(CC[C@@H]4CC(=O)CC[C@]34C)[C@@]13C[C@H]3[C@@H](O)C2 [Compound 203] |  | 1180 | 1.202 |  | 1180 |
| CC(C)(O)C(=O)Nc1ccc([N+](=O)[O-])c(C(F)(F)F)c1 [hydroxyflutamide, reference compound] |  |  | 1.282 |  |  |
